According to ChEMBL document CHEMBL5537150, “Synthesis of melampomagnolide B derivatives as potential anti-Triple Negative Breast Cancer agents” (Eur J Med Chem, 2024):
Active and inactive are the calls of the source. No cut-off for these calls is given here.

Legend:
[1] = system: SUM-159-PT; assay: Antiproliferative activity against human SUM159 cells assessed as inhibition of cell growth incubated for 72 hrs by MTT assay; assay type: functional, cell-based
[2] = system: MDA-MB-231; assay: Induction of apoptosis in human MDA-MB-231 cells assessed as downregulation of MCL-1 protein expression incubated for 48 hrs by Western blotting analysis; assay type: functional, cell-based
[3] = system: MDA-MB-231; assay: Inhibition of NF-kappaB signalling pathway in human MDA-MB-231 cells assessed as downregulation of nuclear p65 expression at 0.2 to 2 uM incubated for 48 hrs by Western blotting analysis; assay type: cell-based; conditions: dose 0.2-2 µM
[4] = system: MDA-MB-468; assay: Induction of cell cycle arrest in human MDA-MB-468 cells assessed as downregulation of Cdc25c protein expression incubated for 48 hrs by Western blotting analysis; assay type: functional, cell-based
[5] = system: MDA-MB-468; assay: Antimigratory activity in human MDA-MB-468 cells assessed as reduction in number of migrated cells incubated for 48 hrs by crystal violet staining based transwell assay; assay type: functional, cell-based
[6] = system: MDA-MB-468; assay: Induction of cell cycle arrest in human MDA-MB-468 cells assessed as increase in accumulation of cells at G2/M phase at 0.2 to 2 uM incubated for 48 hrs by RNase/PI staining based flow cytometric analysis; assay type: functional; conditions: dose 0.2-2 µM
[7] = system: NIH3T3; assay: Cytotoxicity against mouse 3T3 cells at 1 uM incubated for 72 hrs by MTT assay; assay type: toxicity, cell-based; conditions: nih3t3, 72 h
[8] = system: MDA-MB-468; assay: Induction of cell cycle arrest in human MDA-MB-468 cells assessed as decrease in accumulation of cells at G1 phase at 0.2 to 2 uM incubated for 48 hrs by RNase/PI staining based flow cytometric analysis; assay type: functional; conditions: dose 0.2-2 µM
[9] = system: 4T1; assay: Antitumor activity against mouse 4T1 cells implanted in Balb/c mouse assessed as decrease in liver weight at 10 mg/kg,ip administrated every two days for 20 days; assay type: functional, organism-based; conditions: time 20.0 day
[10] = system: MDA-MB-231; assay: Induction of cell cycle arrest in human MDA-MB-231 cells assessed as downregulation of Cyclin E1 protein expression incubated for 48 hrs by Western blotting analysis; assay type: functional, cell-based
[11] = system: MDA-MB-231; assay: Induction of apoptosis in human MDA-MB-231 cells at 0.5 uM incubated for 48 hrs by annexin-V-APC/PI staining based flow cytometric analysis (reference value: 1.81 +/- 0.47 %); assay type: functional
[12] = system: MDA-MB-231; assay: Inhibition of NF-kappaB signalling pathway in human MDA-MB-231 cells assessed as inhibition of p65 nuclear translocation at 0.2 to 2 uM incubated for 48 hrs by Western blotting analysis; assay type: cell-based; conditions: dose 0.2-2 µM
[13] = system: MDA-MB-231; assay: Induction of cell cycle arrest in human MDA-MB-231 cells assessed as downregulation of Cdc2 protein expression incubated for 48 hrs by Western blotting analysis; assay type: functional, cell-based
[14] = system: MDA-MB-231; assay: Induction of cell cycle arrest in human MDA-MB-231 cells assessed as downregulation of Cyclin B1 protein expression incubated for 48 hrs by Western blotting analysis; assay type: functional, cell-based
[15] = system: MDA-MB-231; assay: Induction of apoptosis in human MDA-MB-231 cells assessed as upregulation of Bax protein expression incubated for 48 hrs by Western blotting analysis; assay type: functional, cell-based
[16] = Toxicity in Balb/c mouse implanted with mouse 4T1 cells assessed as decrease in body weight at 10 mg/kg,ip administrated every two days for 20 days; assay type: organism-based; conditions: in vivo, 480 h, time 20 day

C=C1C(=O)O[C@H]2[C@H]1CC/C(COc1ccc(-c3cc(=S)ss3)cc1)=C\CC[C@@]1(C)O[C@@H]21
IC50 [1]: 1510 nM | Activity [2]: Dose-Dependent Effect | inhibition [3]: Active | Activity [4]: Dose-Dependent Effect | Activity [5]: Dose-Dependent Effect | Activity [6]: Active | Activity [7]: Toxic | Activity [8]: Active | Activity [9]: Active | Activity [10]: Dose-Dependent Effect | Activity [11]: 2.3% | inhibition [12]: Active | Activity [13]: Dose-Dependent Effect | Activity [14]: Dose-Dependent Effect | Activity [15]: Dose-Dependent Effect | Activity [16]: Toxic
